Measurements published in ChEMBL document CHEMBL4507315 (2021).

How the values were obtained:
[1] = target: Casein kinase II subunit alpha (Homo sapiens) (UniProt P68400); conditions: Compound concentration 100.0 nM
[2] = target: Tyrosine-protein kinase Blk (Homo sapiens) (UniProt P51451); conditions: Compound concentration 100.0 nM
[3] = target: Serine/threonine-protein kinase SIK2 (Homo sapiens) (UniProt Q9H0K1); conditions: Compound concentration 100.0 nM
[4] = system: Mast/stem cell growth factor receptor Kit (Homo sapiens), P10721 [V559D]; conditions: Compound concentration 100.0 nM
[5] = target: SRSF protein kinase 2 (Homo sapiens) (UniProt P78362); conditions: Compound concentration 100.0 nM
[6] = target: Myosin light chain kinase 2, skeletal/cardiac muscle (Homo sapiens) (UniProt Q9H1R3); conditions: Compound concentration 100.0 nM
[7] = target: Serine/threonine-protein kinase Nek7 (Homo sapiens) (UniProt Q8TDX7); conditions: Compound concentration 100.0 nM
Serine/threonine-protein kinase Nek7 (Homo sapiens), sequence (Q8TDX7 whole entry, looked up): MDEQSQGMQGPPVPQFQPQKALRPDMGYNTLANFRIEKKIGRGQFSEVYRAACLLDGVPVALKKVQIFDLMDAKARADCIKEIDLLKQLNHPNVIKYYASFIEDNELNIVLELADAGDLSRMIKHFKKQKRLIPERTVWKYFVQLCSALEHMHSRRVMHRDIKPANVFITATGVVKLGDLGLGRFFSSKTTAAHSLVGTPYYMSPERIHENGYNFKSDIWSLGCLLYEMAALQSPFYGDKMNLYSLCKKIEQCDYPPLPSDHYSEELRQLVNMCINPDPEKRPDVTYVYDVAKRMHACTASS

[8] = target: Tyrosine-protein kinase FRK (Homo sapiens) (UniProt P42685); conditions: Compound concentration 100.0 nM
Tyrosine-protein kinase FRK (Homo sapiens), sequence (P42685 whole entry): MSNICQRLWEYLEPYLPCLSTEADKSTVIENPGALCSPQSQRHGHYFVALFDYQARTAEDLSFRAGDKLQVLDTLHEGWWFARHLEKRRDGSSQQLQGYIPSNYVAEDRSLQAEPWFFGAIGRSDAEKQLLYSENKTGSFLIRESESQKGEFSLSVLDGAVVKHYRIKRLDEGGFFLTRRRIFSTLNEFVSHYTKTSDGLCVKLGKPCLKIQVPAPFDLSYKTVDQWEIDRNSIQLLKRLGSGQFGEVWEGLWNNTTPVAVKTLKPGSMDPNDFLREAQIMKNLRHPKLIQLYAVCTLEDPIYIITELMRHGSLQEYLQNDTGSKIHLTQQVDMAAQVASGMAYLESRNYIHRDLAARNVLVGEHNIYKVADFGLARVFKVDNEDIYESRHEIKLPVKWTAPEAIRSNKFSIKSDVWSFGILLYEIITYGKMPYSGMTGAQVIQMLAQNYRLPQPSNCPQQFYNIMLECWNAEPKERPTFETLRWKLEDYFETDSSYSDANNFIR

[9] = target: Serine/threonine-protein kinase MRCK alpha (Homo sapiens) (UniProt Q5VT25); conditions: Compound concentration 100.0 nM
Serine/threonine-protein kinase MRCK alpha (Homo sapiens), sequence (Q5VT25 whole entry, canonical isoform): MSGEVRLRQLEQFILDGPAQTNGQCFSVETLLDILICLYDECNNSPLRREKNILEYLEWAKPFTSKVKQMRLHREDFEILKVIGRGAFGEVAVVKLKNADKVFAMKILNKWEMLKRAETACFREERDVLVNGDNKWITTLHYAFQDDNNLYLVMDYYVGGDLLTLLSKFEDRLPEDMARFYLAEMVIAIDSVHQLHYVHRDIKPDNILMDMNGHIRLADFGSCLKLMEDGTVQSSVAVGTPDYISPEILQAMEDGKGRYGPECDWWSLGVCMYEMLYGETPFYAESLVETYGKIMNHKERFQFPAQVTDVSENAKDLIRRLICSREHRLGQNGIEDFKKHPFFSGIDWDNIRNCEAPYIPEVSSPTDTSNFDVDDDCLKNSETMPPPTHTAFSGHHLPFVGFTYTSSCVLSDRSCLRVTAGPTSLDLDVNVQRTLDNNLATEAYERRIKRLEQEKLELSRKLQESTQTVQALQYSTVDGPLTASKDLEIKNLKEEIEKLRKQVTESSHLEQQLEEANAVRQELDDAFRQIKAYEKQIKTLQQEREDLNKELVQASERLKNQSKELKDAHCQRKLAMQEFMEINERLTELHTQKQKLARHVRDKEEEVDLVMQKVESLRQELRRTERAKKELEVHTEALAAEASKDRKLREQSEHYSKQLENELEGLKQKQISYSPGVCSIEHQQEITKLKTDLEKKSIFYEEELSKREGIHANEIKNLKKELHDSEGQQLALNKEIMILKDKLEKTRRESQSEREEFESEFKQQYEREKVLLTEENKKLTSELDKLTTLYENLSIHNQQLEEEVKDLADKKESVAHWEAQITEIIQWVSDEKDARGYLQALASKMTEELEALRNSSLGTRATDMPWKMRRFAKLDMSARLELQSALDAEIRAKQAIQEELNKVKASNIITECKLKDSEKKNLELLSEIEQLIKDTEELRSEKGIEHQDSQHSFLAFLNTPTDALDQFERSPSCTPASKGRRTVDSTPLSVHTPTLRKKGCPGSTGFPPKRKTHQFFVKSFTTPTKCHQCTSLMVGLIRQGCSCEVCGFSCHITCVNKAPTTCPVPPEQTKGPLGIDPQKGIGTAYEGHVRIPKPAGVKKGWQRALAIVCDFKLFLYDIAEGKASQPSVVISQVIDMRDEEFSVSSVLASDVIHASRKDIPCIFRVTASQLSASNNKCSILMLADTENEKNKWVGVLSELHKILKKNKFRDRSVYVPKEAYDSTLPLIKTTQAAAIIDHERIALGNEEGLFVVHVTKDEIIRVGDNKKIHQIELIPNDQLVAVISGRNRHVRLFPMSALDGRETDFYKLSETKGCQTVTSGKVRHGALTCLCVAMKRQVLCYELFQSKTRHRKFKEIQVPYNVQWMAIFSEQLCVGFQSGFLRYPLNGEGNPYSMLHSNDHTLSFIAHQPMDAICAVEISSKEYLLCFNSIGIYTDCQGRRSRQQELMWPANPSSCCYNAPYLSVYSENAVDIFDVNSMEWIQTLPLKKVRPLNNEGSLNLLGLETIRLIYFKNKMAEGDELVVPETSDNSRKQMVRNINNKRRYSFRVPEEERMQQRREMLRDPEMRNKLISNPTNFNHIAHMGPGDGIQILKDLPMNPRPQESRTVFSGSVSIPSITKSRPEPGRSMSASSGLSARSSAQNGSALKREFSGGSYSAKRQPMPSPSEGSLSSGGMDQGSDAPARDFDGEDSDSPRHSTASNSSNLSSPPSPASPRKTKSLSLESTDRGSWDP

[10] = target: Casein kinase I isoform epsilon (Homo sapiens) (UniProt P49674); conditions: Compound concentration 100.0 nM
[11] = target: Dual specificity mitogen-activated protein kinase kinase 5 (Homo sapiens) (UniProt Q13163); conditions: Compound concentration 100.0 nM
[12] = system: Tyrosine-protein kinase ABL1 (Homo sapiens), P00519 [Q252H]; conditions: Compound concentration 100.0 nM
[13] = target: Serine/threonine-protein kinase Sgk1 (Homo sapiens) (UniProt O00141); conditions: Compound concentration 100.0 nM
Serine/threonine-protein kinase Sgk1 (Homo sapiens), sequence (O00141 whole entry): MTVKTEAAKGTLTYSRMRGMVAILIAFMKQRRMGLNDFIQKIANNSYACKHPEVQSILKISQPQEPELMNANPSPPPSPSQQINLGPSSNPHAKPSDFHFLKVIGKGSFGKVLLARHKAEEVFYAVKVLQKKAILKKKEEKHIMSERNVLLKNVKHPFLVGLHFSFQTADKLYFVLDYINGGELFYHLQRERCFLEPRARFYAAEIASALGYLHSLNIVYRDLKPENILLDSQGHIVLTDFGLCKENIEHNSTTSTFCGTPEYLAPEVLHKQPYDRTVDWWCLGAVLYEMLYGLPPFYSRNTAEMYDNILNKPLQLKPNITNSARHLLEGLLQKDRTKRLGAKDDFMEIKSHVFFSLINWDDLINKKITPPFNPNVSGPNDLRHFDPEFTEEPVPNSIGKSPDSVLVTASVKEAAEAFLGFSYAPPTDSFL

[14] = target: Tyrosine-protein kinase Lck (Homo sapiens) (UniProt P06239); conditions: Compound concentration 100.0 nM
[15] = target: Serine/threonine-protein kinase 32C (Homo sapiens) (UniProt Q86UX6); conditions: Compound concentration 100.0 nM
[16] = target: Homeodomain-interacting protein kinase 1 (Homo sapiens) (UniProt Q86Z02); conditions: Compound concentration 100.0 nM
[17] = system: Mast/stem cell growth factor receptor Kit (Homo sapiens), P10721 [V559D,T670I]; conditions: Compound concentration 100.0 nM
[18] = target: Tyrosine-protein kinase JAK2 (Homo sapiens) (UniProt O60674); conditions: Compound concentration 100.0 nM
[19] = target: Activin receptor type-1B (Homo sapiens) (UniProt P36896); conditions: Compound concentration 100.0 nM
[20] = target: Mitogen-activated protein kinase 3 (Homo sapiens) (UniProt P27361); conditions: Compound concentration 100.0 nM
Mitogen-activated protein kinase 3 (Homo sapiens), sequence (P27361 whole entry): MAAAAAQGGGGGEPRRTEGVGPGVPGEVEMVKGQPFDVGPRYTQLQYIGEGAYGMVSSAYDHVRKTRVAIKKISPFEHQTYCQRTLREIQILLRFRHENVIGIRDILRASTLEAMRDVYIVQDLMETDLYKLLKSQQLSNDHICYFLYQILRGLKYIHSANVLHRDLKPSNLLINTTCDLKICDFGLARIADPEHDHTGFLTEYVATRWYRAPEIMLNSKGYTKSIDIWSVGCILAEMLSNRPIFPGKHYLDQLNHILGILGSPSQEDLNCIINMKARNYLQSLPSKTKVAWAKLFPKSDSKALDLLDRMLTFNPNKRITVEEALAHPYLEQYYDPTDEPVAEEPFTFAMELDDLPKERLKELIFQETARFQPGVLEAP

[21] = target: Ephrin type-A receptor 7 (Homo sapiens) (UniProt Q15375); conditions: Compound concentration 100.0 nM
[22] = target: Calcium/calmodulin-dependent protein kinase kinase 1 (Homo sapiens) (UniProt Q8N5S9); conditions: Compound concentration 100.0 nM
Calcium/calmodulin-dependent protein kinase kinase 1 (Homo sapiens), sequence (Q8N5S9 whole entry, looked up): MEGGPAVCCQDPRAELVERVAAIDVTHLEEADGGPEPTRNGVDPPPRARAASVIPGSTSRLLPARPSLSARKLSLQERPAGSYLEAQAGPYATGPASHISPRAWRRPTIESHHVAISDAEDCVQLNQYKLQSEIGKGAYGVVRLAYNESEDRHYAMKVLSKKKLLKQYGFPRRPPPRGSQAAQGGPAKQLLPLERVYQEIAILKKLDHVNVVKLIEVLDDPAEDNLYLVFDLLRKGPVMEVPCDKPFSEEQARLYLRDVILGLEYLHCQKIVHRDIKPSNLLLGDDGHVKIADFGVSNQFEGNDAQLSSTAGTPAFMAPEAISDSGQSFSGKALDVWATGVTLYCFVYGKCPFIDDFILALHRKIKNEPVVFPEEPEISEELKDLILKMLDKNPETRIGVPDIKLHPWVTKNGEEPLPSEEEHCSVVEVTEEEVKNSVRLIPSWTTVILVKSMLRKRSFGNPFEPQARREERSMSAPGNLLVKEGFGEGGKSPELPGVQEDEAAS

[23] = target: Proto-oncogene tyrosine-protein kinase receptor Ret (Homo sapiens) (UniProt P07949); conditions: Compound concentration 100.0 nM
[24] = target: D(1A) dopamine receptor (Homo sapiens) (UniProt P21728); conditions: Compound concentration 10.0 uM
[25] = system: Receptor-type tyrosine-protein kinase FLT3 (Homo sapiens), P36888 [K663Q]; conditions: Compound concentration 100.0 nM
[26] = system: Receptor-type tyrosine-protein kinase FLT3 (Homo sapiens), P36888 [UNDEFINED MUTATION]; conditions: Compound concentration 100.0 nM
[27] = target: Serine/threonine-protein kinase DCLK1 (Homo sapiens) (UniProt O15075); conditions: Compound concentration 100.0 nM
[28] = system: Phosphatidylinositol 4,5-bisphosphate 3-kinase catalytic subunit alpha isoform (Homo sapiens), P42336 [C420R]; conditions: Compound concentration 100.0 nM
[29] = target: RAC-alpha serine/threonine-protein kinase (Homo sapiens) (UniProt P31749); conditions: Compound concentration 100.0 nM
[30] = target: Serine/threonine-protein kinase pim-3 (Homo sapiens) (UniProt Q86V86); conditions: Compound concentration 100.0 nM
[31] = target: Rho-associated protein kinase 1 (Homo sapiens) (UniProt Q13464); conditions: Compound concentration 100.0 nM
[32] = target: Ephrin type-A receptor 6 (Homo sapiens) (UniProt Q9UF33); conditions: Compound concentration 100.0 nM
Ephrin type-A receptor 6 (Homo sapiens), sequence (Q9UF33 whole entry): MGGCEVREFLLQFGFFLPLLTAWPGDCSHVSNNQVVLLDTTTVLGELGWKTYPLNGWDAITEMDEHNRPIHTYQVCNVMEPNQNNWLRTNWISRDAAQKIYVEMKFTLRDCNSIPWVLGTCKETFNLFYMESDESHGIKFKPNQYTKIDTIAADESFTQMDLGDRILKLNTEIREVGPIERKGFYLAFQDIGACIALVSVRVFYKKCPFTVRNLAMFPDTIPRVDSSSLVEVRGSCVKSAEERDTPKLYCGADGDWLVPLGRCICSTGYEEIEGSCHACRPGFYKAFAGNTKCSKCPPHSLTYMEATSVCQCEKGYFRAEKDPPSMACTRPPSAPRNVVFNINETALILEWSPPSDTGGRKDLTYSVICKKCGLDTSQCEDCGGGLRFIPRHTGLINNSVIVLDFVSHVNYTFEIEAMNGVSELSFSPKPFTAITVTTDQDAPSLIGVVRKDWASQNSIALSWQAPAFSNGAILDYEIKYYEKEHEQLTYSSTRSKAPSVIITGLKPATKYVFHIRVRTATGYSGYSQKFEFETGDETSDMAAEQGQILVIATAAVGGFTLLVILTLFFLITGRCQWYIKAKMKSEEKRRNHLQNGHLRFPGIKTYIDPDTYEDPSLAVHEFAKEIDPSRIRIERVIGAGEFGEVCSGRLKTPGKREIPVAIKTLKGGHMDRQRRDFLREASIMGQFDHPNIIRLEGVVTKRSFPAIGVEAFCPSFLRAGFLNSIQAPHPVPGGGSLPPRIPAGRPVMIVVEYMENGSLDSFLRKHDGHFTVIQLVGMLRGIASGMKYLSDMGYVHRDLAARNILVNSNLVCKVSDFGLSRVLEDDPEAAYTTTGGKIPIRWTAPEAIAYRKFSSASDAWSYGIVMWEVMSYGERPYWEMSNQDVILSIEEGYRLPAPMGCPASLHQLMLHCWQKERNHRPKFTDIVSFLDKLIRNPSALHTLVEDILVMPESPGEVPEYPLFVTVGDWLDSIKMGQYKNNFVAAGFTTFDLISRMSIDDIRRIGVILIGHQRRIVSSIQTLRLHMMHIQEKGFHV

[33] = target: Serine/threonine-protein kinase 17B (Homo sapiens) (UniProt O94768); conditions: Compound concentration 100.0 nM
[34] = target: Serine/threonine-protein kinase PAK 4 (Homo sapiens) (UniProt O96013); conditions: Compound concentration 100.0 nM
[35] = target: 5-hydroxytryptamine receptor 1D (Homo sapiens) (UniProt P28221); conditions: Compound concentration 10.0 uM
[36] = target: STE20-like serine/threonine-protein kinase (Homo sapiens) (UniProt Q9H2G2); conditions: Compound concentration 100.0 nM
[37] = system: Tyrosine-protein kinase ABL1 (Homo sapiens), P00519 [H396P]; conditions: Compound concentration 100.0 nM
[38] = target: Serine/threonine-protein kinase STK11 (Homo sapiens) (UniProt Q15831); conditions: Compound concentration 100.0 nM
[39] = target: Tyrosine-protein kinase ITK/TSK (Homo sapiens) (UniProt Q08881); conditions: Compound concentration 100.0 nM
[40] = system: Phosphatidylinositol 4,5-bisphosphate 3-kinase catalytic subunit alpha isoform (Homo sapiens), P42336 [Q546K]; conditions: Compound concentration 100.0 nM
[41] = target: 5-hydroxytryptamine receptor 5A (Homo sapiens) (UniProt P47898); conditions: Compound concentration 10.0 uM
[42] = target: Dual specificity protein kinase TTK (Homo sapiens) (UniProt P33981); conditions: Compound concentration 100.0 nM
[43] = target: Serine/threonine-protein kinase OSR1 (Homo sapiens) (UniProt O95747); conditions: Compound concentration 100.0 nM
[44] = system: Mast/stem cell growth factor receptor Kit (Homo sapiens), P10721 [V559D,V654A]; conditions: Compound concentration 100.0 nM
[45] = target: Tyrosine-protein kinase Lyn (Homo sapiens) (UniProt P07948); conditions: Compound concentration 100.0 nM

O=C(NCCCC1CCCCC1)c1ccc(CNC(=O)c2cnn(-c3ccccc3)c2C(F)(F)F)cc1 [SR-321]
residual activity [1]: 94%
residual activity [2]: 100%
residual activity [3]: 100%
residual activity [4]: 100%
residual activity [5]: 100%
residual activity [6]: 100%
residual activity [7]: 97%
residual activity [8]: 77%
residual activity [9]: 100%
residual activity [10]: 100%
residual activity [11]: 73%
residual activity [12]: 100%
residual activity [13]: 100%
residual activity [14]: 100%
residual activity [15]: 100%
residual activity [16]: 99%
residual activity [17]: 100%
residual activity [18]: 100%
residual activity [19]: 100%
residual activity [20]: 93%
residual activity [21]: 86%
residual activity [22]: 100%
residual activity [23]: 89%
inhibition [24]: 5.56%
residual activity [25]: 100%
residual activity [26]: 100%
residual activity [27]: 100%
residual activity [28]: 85%
residual activity [29]: 100%
residual activity [30]: 100%
residual activity [31]: 100%
residual activity [32]: 88%
residual activity [33]: 100%
residual activity [34]: 100%
inhibition [35]: -8.35%
residual activity [36]: 100%
residual activity [37]: 99%
residual activity [38]: 100%
residual activity [39]: 100%
residual activity [40]: 67%
inhibition [41]: 17%
residual activity [42]: 91%
residual activity [43]: 91%
residual activity [44]: 100%
residual activity [45]: 100%

Nc1c(C(=O)NCc2ccc(C(=O)NCCCC3CCCCC3)cc2)cnn1-c1ccccc1 [SR-318]
residual activity [1]: 70%
residual activity [2]: 81%
residual activity [3]: 100%
residual activity [4]: 45%
residual activity [5]: 100%
residual activity [6]: 100%
residual activity [7]: 99%
residual activity [8]: 100%
residual activity [9]: 100%
residual activity [10]: 98%
residual activity [11]: 100%
residual activity [12]: 87%
residual activity [13]: 100%
residual activity [14]: 82%
residual activity [15]: 90%
residual activity [16]: 100%
residual activity [17]: 98%
residual activity [18]: 100%
residual activity [19]: 100%
residual activity [20]: 94%
residual activity [21]: 100%
residual activity [22]: 100%
residual activity [23]: 89%
inhibition [24]: -5.64%
residual activity [25]: 100%
residual activity [26]: 73%
residual activity [27]: 100%
residual activity [28]: 100%
residual activity [29]: 100%
residual activity [30]: 91%
residual activity [31]: 100%
residual activity [32]: 94%
residual activity [33]: 94%
residual activity [34]: 99%
inhibition [35]: 27.6%
residual activity [36]: 80%
residual activity [37]: 100%
residual activity [38]: 100%
residual activity [39]: 93%
residual activity [40]: 96%
inhibition [41]: 9.6%
residual activity [42]: 100%
residual activity [43]: 100%
residual activity [44]: 100%
residual activity [45]: 100%
